Experimental data reported in patent US20060258599A1, “Methods and composition for the treatment of cystic fibrosis and related illnesses” (priority 2005, published 2006).
Like-named read-outs stand apart in the source and are kept apart here.

What was measured:
[1] = system: individual who is a carrier of the CF gene; assay: Fatty acid profile blood tests before and after 10-day oral isothiocyanate (individual study); format: in vivo, human
Description: Example 1. Individual study based on 10 mg consumption of BITC. An isothiocyanate of 10 mg was taken orally per day for 10 days by an individual who is a carrier of the CF gene. Blood tests were performed before and after the 10-day study to determine the fatty acid levels before and after administration of the isothiocyanate.

[2] = system: glutathione S-transferase; conditions: cited from earlier work; for glutathione S-transferase activity: HT29 cells
[3] = +10 days vs baseline, 10 mg orally per day

## S=C=NCc1ccccc1 [BITC, benzyl isothiocyanate]
[1]; [3]
  Arachidic Acid, % Change: −8.93%
  Arachidonic Acid, % Change: −3.31%
  DHA C22:6W3, % Change: 36.29%
  DPA C22 6W3, % Change: −5.19%
  DPA C22:6W6, % Change: −8.7%
  DTA C22 4W6T, % Change: 6.45%
  Docosanoic Acid C22:0, % Change: 22.59%
  Docosanoic Acid C22:1, % Change: 0%
  EPA, % Change: 18.57%
  Hexacosanoic Acid C24:0, % Change: 33.33%
  Hexacosanoic Acid C28:1, % Change: 29.17%
  Mead Acid, % Change: 0%
  Nervonic Acid, % Change: −2.47%
  Phytanic Acid, % Change: 18.8%
  Priatanic Acid, % Change: 11.11%
  Tetracosanoic Acid, % Change: 24.6%
  Tiete Tebrana Ratio, % Change: 0%
  Total Fatty Acids, % Change: 1.87%
  Total Monounsaturated, % Change: 12%
  Total Polyunsaturated, % Change: 4.35%
  Total Saturated, % Change: 0%
  Total w3, % Change: 20%
  Total w61, % Change: 2.44%
  h-g-Linoleic Acid, % Change: −9.88%
[1]; blood test after 10 mg orally per day for 10 days, baseline 0.031
  Tiete Tebrana Ratio, +10 days: 0.031
[1]; blood test after 10 mg orally per day for 10 days, baseline 0.09
  Priatanic Acid, +10 days: 0.1
[1]; blood test after 10 mg orally per day for 10 days, baseline 0.3
  Hexacosanoic Acid C24:0, +10 days: 0.4
[1]; blood test after 10 mg orally per day for 10 days, baseline 0.48
  Hexacosanoic Acid C28:1, +10 days: 0.62
[1]; blood test after 10 mg orally per day for 10 days, baseline 0.5
  Total w3, +10 days: 0.6
[1]; blood test after 10 mg orally per day for 10 days, baseline 1.33
  Phytanic Acid, +10 days: 1.58
[1]; blood test after 10 mg orally per day for 10 days, baseline 2.5
  Total Monounsaturated, +10 days: 2.8
[1]; blood test after 10 mg orally per day for 10 days, baseline 3
  Docosanoic Acid C22:1, +10 days: 3
[1]; blood test after 10 mg orally per day for 10 days, baseline 3.5
  Total Saturated, +10 days: 3.5
[1]; blood test after 10 mg orally per day for 10 days, baseline 4.1
  Total w61, +10 days: 4.2
[1]; blood test after 10 mg orally per day for 10 days, baseline 4.6
  Total Polyunsaturated, +10 days: 4.8
[1]; blood test after 10 mg orally per day for 10 days, baseline 10.7
  Total Fatty Acids, +10 days: 10.9
[1]; blood test after 10 mg orally per day for 10 days, baseline 23
  DPA C22:6W6, +10 days: 21
[1]; blood test after 10 mg orally per day for 10 days, baseline 25
  Mead Acid, +10 days: 25
[1]; blood test after 10 mg orally per day for 10 days, baseline 31
  DTA C22 4W6T, +10 days: 33
[1]; blood test after 10 mg orally per day for 10 days, baseline 44.3
  Tetracosanoic Acid, +10 days: 55.2
[1]; blood test after 10 mg orally per day for 10 days, baseline 56
  Arachidic Acid, +10 days: 51
[1]; blood test after 10 mg orally per day for 10 days, baseline 60.2
  Docosanoic Acid C22:0, +10 days: 73.8
[1]; blood test after 10 mg orally per day for 10 days, baseline 70
  EPA, +10 days: 83
[1]; blood test after 10 mg orally per day for 10 days, baseline 77
  DPA C22 6W3, +10 days: 73
[1]; blood test after 10 mg orally per day for 10 days, baseline 81
  Nervonic Acid, +10 days: 79
[1]; blood test after 10 mg orally per day for 10 days, baseline 243
  h-g-Linoleic Acid, +10 days: 219
[1]; blood test after 10 mg orally per day for 10 days, baseline 248
  DHA C22:6W3, +10 days: 338
[1]; blood test after 10 mg orally per day for 10 days, baseline 847
  Arachidonic Acid, +10 days: 819
[2]; HT29 cells cultures exposed to BITC
  effect on glutathione S-transferase activity (in words): statistically significant increase
[2]; 5 μmol/L of BITC
  glutathione S-transferase activity: ~0.51 μmol min^−1 mg proteins^−1
[2]; 25 μmol/L of BITC
  glutathione S-transferase activity: ~0.74 μmol min^−1 mg protein^−1
